# Measurements from PubChem BioAssay (NCI).
#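 Where inhibition never reached the appropriate level, the endpoint shown equals the highest concentration tested. Otherwise, values were interpolated linearly from a five-concentration, 48-hour dose response in 96-well plates. TGI marks complete inhibition of growth.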
# Tests used:
# Assay in all cases: NCI-60 cell line screen, 48 h
# [1] = test system: OVCAR-8 ovarian
# [2] = test system: SNB-19 CNS
# [3] = test system: CCRF-CEM leukemia
# [4] = test system: NCI/ADR-RES ovarian
# [5] = test system: BT-549 breast
# [6] = test system: SF-295 CNS
# [7] = test system: K-562 leukemia
# [8] = test system: MALME-3M melanoma
# [9] = test system: HL-60(TB) leukemia
# [10] = test system: HOP-62 NSCLC
# [11] = test system: SR leukemia
# [12] = test system: UACC-62 melanoma
# [13] = test system: NCI-H460 lung
# [14] = test system: IGROV1 ovarian
# [15] = test system: HCT-116 colon
# [16] = test system: UACC-257 melanoma
# [17] = test system: SK-MEL-2 melanoma
# [18] = test system: NCI-H522 lung
# [19] = test system: OVCAR-3 ovarian
# [20] = test system: ACHN renal
# [21] = test system: HS 578T breast
# [22] = test system: PC-3 prostate
# [23] = test system: UO-31 renal
# [24] = test system: U251 CNS
# [25] = test system: RPMI-8226 leukemia
# [26] = test system: T-47D breast
# [27] = test system: 786-0 renal
# [28] = test system: HCT-15 colon
# [29] = test system: CAKI-1 renal
# [30] = test system: HOP-92 NSCLC
# [31] = test system: HCC-2998 colon
# [32] = test system: EKVX NSCLC
# [33] = test system: COLO 205 colon
# [34] = test system: SF-268 CNS
# [35] = test system: HT29 colon
# [36] = test system: MCF7 breast
# [37] = test system: MDA-N
# [38] = test system: OVCAR-4 ovarian
# [39] = test system: A498 renal
# [40] = test system: MDA-MB-435
# [41] = test system: A549 NSCLC
# [42] = test system: LOX IMVI melanoma
# [43] = test system: SK-OV-3 ovarian
# [44] = test system: SK-MEL-28 melanoma
# [45] = test system: M14 melanoma
# [46] = test system: SW-620 colon
# [47] = test system: SK-MEL-5 melanoma
# [48] = test system: KM12 colon
# [49] = test system: OVCAR-5 ovarian
# [50] = test system: SN12C renal
# [51] = test system: MOLT-4 leukemia
smiles,measurement,setting,value
COc1ccc(C2=Nn3c(nnc3-c3ccccc3)S/C2=C\c2ccc(-c3ccc([N+](=O)[O-])cc3)o2)cc1,TGI,[1],> 100 µM
same,TGI,[2],> 100 µM
same,TGI,[3],32.7 µM
same,TGI,[4],> 100 µM
same,TGI,[5],> 100 µM
same,TGI,[6],> 100 µM
same,TGI,[7],88.8 µM
same,TGI,[8],> 100 µM
same,TGI,[9],59 µM
same,TGI,[10],> 100 µM
same,TGI,[11],> 100 µM
same,TGI,[12],> 100 µM
same,TGI,[13],> 100 µM
same,TGI,[14],> 100 µM
same,TGI,[15],> 100 µM
same,TGI,[16],> 100 µM
same,TGI,[17],67.6 µM
same,TGI,[18],81.8 µM
same,TGI,[19],> 100 µM
same,TGI,[20],> 100 µM
same,TGI,[21],> 100 µM
same,TGI,[22],> 100 µM
same,TGI,[23],> 100 µM
same,TGI,[24],> 100 µM
same,TGI,[25],80.2 µM
same,TGI,[26],> 100 µM
same,TGI,[27],> 100 µM
same,TGI,[28],> 100 µM
same,TGI,[29],> 100 µM
same,TGI,[30],> 100 µM
same,TGI,[31],> 100 µM
same,TGI,[32],> 100 µM
same,TGI,[33],70 µM
same,TGI,[34],> 100 µM
same,TGI,[35],90.3 µM
same,TGI,[36],> 100 µM
same,TGI,[37],> 100 µM
same,TGI,[38],> 100 µM
same,TGI,[39],> 100 µM
same,TGI,[40],51.3 µM
same,TGI,[41],> 100 µM
same,TGI,[42],> 100 µM
same,TGI,[43],> 100 µM
same,TGI,[44],> 100 µM
same,TGI,[45],86.1 µM
same,TGI,[46],> 100 µM
same,TGI,[47],> 100 µM
same,TGI,[48],> 100 µM
same,TGI,[49],> 100 µM
same,TGI,[50],> 100 µM
same,TGI,[51],76.6 µM
